According to US9924714B2, “Impregnatable matrix of plant, animal or synthetic origin or mixtures of same, containing a uniformly distributed antimicrobial compound, method for impregnating said matrix with a compound, and use thereof in the production of antimicrobial elements” (COMPAÑIA MINERA SAN GERONIMO, priority 2013, dated 2018):

Experiments:
Format in all cases: cell-based
[1] = test system: Citrobacter freundii ISP1949/99; test: Sensidisc and thin cloth growth inhibition test (Example 3); design: unit not given here
Protocol: (§1) In this example, the antimicrobial activity of the invention was determined by testing on sensidiscs. On order to do this, they were prepared 5 mm filter paper discs, embedded with various concentrations of compound Cu4SO4(OH)6 (Alkaline Copper Sulfate) of the study dissolved in DMSO (0 μg, 200 μg, 400 μg, 600 μg, 800 μg). In addition, pieces of cloth of about 2×2 cm were prepared and embedded with the new product. Paper discs and fabric were deposited on a background lawn, which was performed as follows:
(§2) From a bacterial culture of 16 hours, with the strain of interest, it was performed a 1/30 dilution of the culture with fresh medium and incubated under stirring at 37° C. until reaching the exponential growth phase (D0600 nm 0.4-0.5). It was taken an aliquot of 100 μL of the culture in exponential phase, and deposited in 4 mL of Mueller-Hinton soft agar at 0.8% (previously melted and stabilized at 50° C.). The mixture was deposited on a Petri dish with 20 mL of Mueller-Hinton agar base. Once the agar was gelled, each of the discs with different amounts of the test compound were deposited on the background lawn, and incubated at 37° C. during 48 hours.
(§3) Experiments were performed in triplicate in independently, using as negative control discs with the solvent DMSO alone and cloth without the product of study. As positive control were used commercial discs used with 30 μg of antibiotic Kanamycin (Km).

[2] = test system: Enterococcus faecium ISP133/04; test: as above; design: unit not given here
Protocol: as §1, §2, §3

[3] = test system: Staphylococcus epidermidis; test: as above; design: unit not given here
Protocol: as §1, §2, §3

[4] = test system: Acinetobacter baumannii UDP456; test: as above; design: unit not given here
Protocol: as §1, §2, §3

[5] = test system: Escherichia coli ATCC25922; test: as above; design: unit not given here
Protocol: as §1, §2, §3

[6] = test system: Enterobacter aerogenes ATCC13048; test: as above; design: unit not given here
Protocol: as §1, §2, §3

[7] = test system: Enterococcus faecalis ATCC29212; test: as above
Protocol: as §1, §2, §3

[8] = test system: Staphylococcus aureus ATCC25923; test: as above
Protocol: as §1, §2, §3

[9] = test system: Klebsiella pneumoniae ATCC4352; test: as above
Protocol: as §1, §2, §3

[10] = test system: Streptococcus pyogenes ATCC2367; test: as above
Protocol: as §1, §2, §3

[11] = test system: Pseudomonas aeruginosa PAOI; test: as above
Protocol: as §1, §2, §3

[12] = test system: Streptococcus pneumonia ATCC14325; test: as above
Protocol: as §1, §2, §3

[13] = test system: all bacterial strains tested; test: Antibacterial activity of alkaline copper sulfate, summary (Example 3); settings: summary in words of Table 5
Protocol: as §1, §2
Experiments were performed in triplicate in independently, using as negative control discs with the solvent DMSO alone and cloth without the product of study. […]

O=S(=O)([O-])[O-].[Cu+2].[Cu+2].[Cu+2].[Cu+2].[OH-].[OH-].[OH-].[OH-].[OH-].[OH-] [Alkaline Copper Sulphate, Alkaline Copper Sulfate]
Growth inhibition zone ([1]; 200 μg on 5 mm disc): 8.0 ± 1.0 | Growth inhibition zone ([1]; 400 μg on 5 mm disc): 10.7 ± 1.5 | Growth inhibition zone ([1]; 600 μg on 5 mm disc): 11.3 ± 0.6 | Growth inhibition zone ([1]; 800 μg on 5 mm disc): 11.3 ± 1.5 | Growth inhibition zone ([2]; 200 μg on 5 mm disc): 6.0 ± 1.0 | Growth inhibition zone ([2]; 400 μg on 5 mm disc): 6.0 ± 1.0 | Growth inhibition zone ([2]; 600 μg on 5 mm disc): 6.0 ± 1.0 | Growth inhibition zone ([2]; 800 μg on 5 mm disc): 6.0 ± 1.0 | Growth inhibition zone ([3]; 200 μg on 5 mm disc): 12.0 ± 0.6 | Growth inhibition zone ([3]; 400 μg on 5 mm disc): 14.3 ± 0.6 | Growth inhibition zone ([3]; 600 μg on 5 mm disc): 13.7 ± 1.5 | Growth inhibition zone ([3]; 800 μg on 5 mm disc): 14.6 ± 0.6 | Growth inhibition zone ([4]; 200 μg on 5 mm disc): 11.7 ± 0.6 | Growth inhibition zone ([4]; 400 μg on 5 mm disc): 15.7 ± 0.6 | Growth inhibition zone ([4]; 600 μg on 5 mm disc): 17.0 ± 1.0 | Growth inhibition zone ([4]; 800 μg on 5 mm disc): 19.7 ± 0.6 | Growth inhibition zone ([5]; 200 μg on 5 mm disc): 13.3 ± 1.4 | Growth inhibition zone ([5]; 400 μg on 5 mm disc): 13.0 ± 0.7 | Growth inhibition zone ([5]; 600 μg on 5 mm disc): 15.0 ± 0.7 | Growth inhibition zone ([5]; 800 μg on 5 mm disc): 13.3 ± 0.7 | Growth inhibition zone ([6]; 200 μg on 5 mm disc): 7.3 ± 1.5 | Growth inhibition zone ([6]; 400 μg on 5 mm disc): 9.7 ± 1.5 | Growth inhibition zone ([6]; 600 μg on 5 mm disc): 9.7 ± 0.6 | Growth inhibition zone ([6]; 800 μg on 5 mm disc): 9.7 ± 1.5 | Growth inhibition zone ([7]; 200 μg on 5 mm disc): 6.0 ± 1.0 mm | Growth inhibition zone ([7]; 400 μg on 5 mm disc): 6.0 ± 1.0 mm | Growth inhibition zone ([7]; 600 μg on 5 mm disc): 6.0 ± 1.0 mm | Growth inhibition zone ([7]; 800 μg on 5 mm disc): 6.0 ± 1.0 mm | Growth inhibition zone ([8]; 200 μg on 5 mm disc): 6.0 ± 1.0 mm | Growth inhibition zone ([8]; 400 μg on 5 mm disc): 10.3 ± 0.6 mm | Growth inhibition zone ([8]; 600 μg on 5 mm disc): 11.7 ± 0.6 mm | Growth inhibition zone ([8]; 800 μg on 5 mm disc): 14.0 ± 1.0 mm | Growth inhibition zone ([9]; 200 μg on 5 mm disc): 7.3 ± 0.6 mm | Growth inhibition zone ([9]; 400 μg on 5 mm disc): 8.7 ± 0.6 mm | Growth inhibition zone ([9]; 600 μg on 5 mm disc): 9.7 ± 0.6 mm | Growth inhibition zone ([9]; 800 μg on 5 mm disc): 10.0 mm | Growth inhibition zone ([10]; 200 μg on 5 mm disc): 5.0 ± 1.0 mm | Growth inhibition zone ([10]; 400 μg on 5 mm disc): 6.0 ± 1.0 mm | Growth inhibition zone ([10]; 600 μg on 5 mm disc): 7.0 ± 1.2 mm | Growth inhibition zone ([10]; 800 μg on 5 mm disc): 8.0 ± 1.4 mm | Growth inhibition zone ([11]; 200 μg on 5 mm disc): 6.3 ± 1.5 mm | Growth inhibition zone ([11]; 400 μg on 5 mm disc): 6.7 ± 1.2 mm | Growth inhibition zone ([11]; 600 μg on 5 mm disc): 8.3 ± 0.6 mm | Growth inhibition zone ([11]; 800 μg on 5 mm disc): 8.3 ± 1.7 mm | Growth inhibition zone ([12]; 200 μg on 5 mm disc): 5.0 ± 1.0 mm | Growth inhibition zone ([12]; 400 μg on 5 mm disc): 8.0 ± 0.7 mm | Growth inhibition zone ([12]; 600 μg on 5 mm disc): 9.0 ± 1.0 mm | Growth inhibition zone ([12]; 800 μg on 5 mm disc): 11.0 ± 1.2 mm | antibacterial activity ([13]; listed as Alkaline Copper Sulfate (OH)6): antibacterial activity on all bacterial strains tested | antibacterial activity ([13]; listed as product of invention): spectrum of antibacterial activity greater than the hydroxyphosphate copper compounds (II) and copper oxychloride (II)
